PubChem BioAssay AID248 (DTP/NCI, 2004)
Inconclusive results and toxic doses are left out. Cut-off read from the data, not from the text of the source: active = T/C of 150% or more; inactive = T/C below 125%.

Tested on: L1210 leukemia ip in BDF1 mice, survival T/C
Test: NCI In Vivo Anticancer Drug Screen. Data for tumor model L1210 Leukemia (intraperitoneal) in B6D2F1 (BDF1) mice
Conditions: endpoint: mean survival time, higher = longer survival
How it was run: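 Transplanted-tumor mice were given test agent; controls received vehicle only. Survival readings from the two groups were divided (treated over control).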

[1] = dose: 100.0 mg/kg/injection, schedule: Q04DX003 (ip), vehicle: saline with Tween-80
[2] = dose: 200.0 mg/kg/injection, schedule: Q04DX003 (ip), vehicle: saline with Tween-80
[3] = dose: 400.0 mg/kg/injection, schedule: Q04DX003 (ip), vehicle: saline with Tween-80
[4] = dose: 100.0 mg/kg/injection, schedule: Q01DX001 (ip), vehicle: saline
[5] = dose: 100.0 mg/kg/injection, schedule: Q01DX009 (ip), vehicle: Klucel (hydroxypropylcellulose) (HPC)
[6] = dose: 200.0 mg/kg/injection, schedule: Q01DX009 (ip), vehicle: Klucel (hydroxypropylcellulose) (HPC)
[7] = dose: 100.0 mg/kg/injection, schedule: Q01DX001 (ip), vehicle: carboxymethylcellulose (CMC)
[8] = dose: 200.0 mg/kg/injection, schedule: Q01DX001 (ip), vehicle: carboxymethylcellulose (CMC)
[9] = dose: 400.0 mg/kg/injection, schedule: Q01DX001 (ip), vehicle: carboxymethylcellulose (CMC)
[10] = dose: 100.0 mg/kg/injection, schedule: Q04DX003 (ip), vehicle: Klucel (hydroxypropylcellulose) (HPC)
[11] = dose: 200.0 mg/kg/injection, schedule: Q04DX003 (ip), vehicle: Klucel (hydroxypropylcellulose) (HPC)
[12] = dose: 400.0 mg/kg/injection, schedule: Q04DX003 (ip), vehicle: Klucel (hydroxypropylcellulose) (HPC)
[13] = dose: 100.0 mg/kg/injection, schedule: Q01DX009 (ip), vehicle: saline
[14] = dose: 200.0 mg/kg/injection, schedule: Q01DX009 (ip), vehicle: saline
[15] = dose: 400.0 mg/kg/injection, schedule: Q01DX009 (ip), vehicle: saline

Measured: T/C

S=P1(c2ccccc2)Nc2cc3ccccc3cc2N1
inactive: [1] 97 % of control | [2] 100 % of control | [3] 96 % of control

CCc1cc(CC)c(/C(Cl)=C/C(=O)NCC(=O)O)c(CC)c1Br
inactive: dose: 75.0 mg/kg/injection, schedule: Q04DX003 (ip), vehicle: Klucel (hydroxypropylcellulose) (HPC) 95 % of control | dose: 150.0 mg/kg/injection, schedule: Q04DX003 (ip), vehicle: Klucel (hydroxypropylcellulose) (HPC) 93 % of control | dose: 300.0 mg/kg/injection, schedule: Q04DX003 (ip), vehicle: Klucel (hydroxypropylcellulose) (HPC) 87 % of control

CCN(CC)CCCNC(c1ccccc1)C(Cl)(Cl)Cl (centres undefined)
inactive: [4] 96 % of control

O=c1[nH]cc(Sc2ccccc2)c(=O)[nH]1
inactive: [1] 101 % of control | [2] 93 % of control | [3] 96 % of control

Nc1n[nH]c(=S)s1
inactive: dose: 46.0 mg/kg/injection, schedule: Q03HX032 (ip), vehicle: Klucel (hydroxypropylcellulose) (HPC) 102 % of control | dose: 70.0 mg/kg/injection, schedule: Q03HX032 (ip), vehicle: Klucel (hydroxypropylcellulose) (HPC) 105 % of control | [5] 95 % of control | dose: 105.0 mg/kg/injection, schedule: Q03HX032 (ip), vehicle: Klucel (hydroxypropylcellulose) (HPC) 108 % of control | dose: 158.0 mg/kg/injection, schedule: Q03HX032 (ip), vehicle: Klucel (hydroxypropylcellulose) (HPC) 106 % of control | dose: 183.0 mg/kg/injection, schedule: Q01DX015 (ip), vehicle: Klucel (hydroxypropylcellulose) (HPC) 108 % of control | [6] 117 % of control | dose: 236.0 mg/kg/injection, schedule: Q03HX032 (ip), vehicle: Klucel (hydroxypropylcellulose) (HPC) 114 % of control | dose: 264.0 mg/kg/injection, schedule: Q01DX015 (ip), vehicle: Klucel (hydroxypropylcellulose) (HPC) 115 % of control | dose: 394.0 mg/kg/injection, schedule: Q01DX015 (ip), vehicle: Klucel (hydroxypropylcellulose) (HPC) 116 % of control | dose: 440.0 mg/kg/injection, schedule: Q01DX001 (ip), vehicle: Klucel (hydroxypropylcellulose) (HPC) 101 % of control | dose: 670.0 mg/kg/injection, schedule: Q01DX001 (ip), vehicle: Klucel (hydroxypropylcellulose) (HPC) 94 % of control

CC(C)(Oc1ccc(Cl)cc1Cl)C(=O)O
inactive: dose: 100.0 mg/kg/injection, schedule: Q01DX009 (ip), vehicle: gum acacia 90 % of control

CCCCCC1SC1CC1SC1CCCCCCCC(=O)N(CCCC)CCCC (centres undefined)
inactive: dose: 30.0 mg/kg/injection, schedule: Q01DX001 (ip), vehicle: saline 102 % of control | [4] 96 % of control | dose: 300.0 mg/kg/injection, schedule: Q01DX001 (ip), vehicle: saline 89 % of control

C1CNC2CCCC2C1 (centres undefined)
inactive: dose: 75.0 mg/kg/injection, schedule: Q01DX001 (ip), vehicle: carboxymethylcellulose (CMC) 103 % of control

CCCCCCCCCCCCCCCCCC1=Nc2ccccc2NC(=O)C1
inactive: [7] 98 % of control | [8] 98 % of control | [9] 93 % of control

N#CC1(C#N)C2C=CC(C3CCC=C32)C1(C#N)C#N (centres undefined)
inactive: dose: 12.5 mg/kg/injection, schedule: Q01DX009 (ip), vehicle: saline with Tween-80 109 % of control | dose: 25.0 mg/kg/injection, schedule: Q01DX009 (ip), vehicle: saline with Tween-80 96 % of control | dose: 25.0 mg/kg/injection, schedule: Q04DX003 (ip), vehicle: saline with Tween-80 104 % of control | dose: 50.0 mg/kg/injection, schedule: Q01DX009 (ip), vehicle: saline with Tween-80 111 % of control | dose: 50.0 mg/kg/injection, schedule: Q04DX003 (ip), vehicle: saline with Tween-80 95 % of control | [1] 93 % of control

Oc1ccc2ccccc2c1/C=N\Nc1ccccn1
inactive: dose: 100.0 mg/kg/injection, schedule: Q04DX002 (ip), vehicle: saline with Tween-80 92 % of control | dose: 200.0 mg/kg/injection, schedule: Q04DX002 (ip), vehicle: saline with Tween-80 92 % of control | dose: 400.0 mg/kg/injection, schedule: Q04DX002 (ip), vehicle: saline with Tween-80 89 % of control

NC(=O)C1(N2CCCC2)CCN(Cc2ccccc2)CC1
inactive: dose: 50.0 mg/kg/injection, schedule: Q01DX009 (ip), vehicle: Klucel (hydroxypropylcellulose) (HPC) 94 % of control | [5] 97 % of control | [10] 96 % of control | [6] 90 % of control | [11] 93 % of control

CC(=O)N(C)C(C(=O)N1CC(C)CC1C(=O)N(C)C1C(=O)NC(CC(C)C)C(=O)N2CC(C)CC2C(=O)NC(CC(C)C)C(=O)N(C)C(C(C)C)C(=O)N2CCCC2C(=O)N(C)C(CC(C)C)C(=O)NCC(=O)OC1C)C(C)C (centres undefined)
inactive: dose: 18.75 mg/kg/injection, schedule: Q01DX009 (ip), vehicle: Klucel (hydroxypropylcellulose) (HPC) 104 % of control | dose: 37.5 mg/kg/injection, schedule: Q01DX009 (ip), vehicle: Klucel (hydroxypropylcellulose) (HPC) 109 % of control | dose: 75.0 mg/kg/injection, schedule: Q01DX009 (ip), vehicle: Klucel (hydroxypropylcellulose) (HPC) 101 % of control

Nc1ccc(Cc2ccc(N)cc2[N+](=O)[O-])c([N+](=O)[O-])c1
inactive: [7] 98 % of control | [8] 105 % of control | [9] 100 % of control

N#Cc1c(C#N)c(/N=C/c2ccccc2)n(/N=C/c2ccccc2)c1N
inactive: dose: 87.5 mg/kg/injection, schedule: Q04DX003 (ip), vehicle: other 91 % of control | dose: 175.0 mg/kg/injection, schedule: Q04DX003 (ip), vehicle: other 93 % of control | dose: 350.0 mg/kg/injection, schedule: Q04DX003 (ip), vehicle: other 95 % of control

Cc1ccc(NC(=O)c2ccccc2C(=O)O)cc1Cl
inactive: [5] 93 % of control | [10] 96 % of control | [6] 98 % of control | [11] 93 % of control | dose: 400.0 mg/kg/injection, schedule: Q01DX009 (ip), vehicle: Klucel (hydroxypropylcellulose) (HPC) 95 % of control | [12] 96 % of control

COC(=O)C(C)Oc1ccc([N+](=O)[O-])c(O)c1[N+](=O)[O-] (centres undefined)
inactive: [10] 100 % of control | [11] 91 % of control | [12] 96 % of control

CN(C)C(=O)OC(C)(C)C
inactive: dose: 100.0 mg/kg/injection, schedule: Q04DX002 (ip), vehicle: saline 97 % of control | dose: 200.0 mg/kg/injection, schedule: Q04DX002 (ip), vehicle: saline 101 % of control | dose: 400.0 mg/kg/injection, schedule: Q04DX002 (ip), vehicle: saline 97 % of control

COc1ccc(C(=O)CCC(=O)O)c(C)c1
inactive: [13] 97 % of control | [14] 101 % of control | [15] 105 % of control

COc1cc(N)c2ncccc2c1SC
inactive: [13] 108 % of control | dose: 100.0 mg/kg/injection, schedule: Q04DX003 (ip), vehicle: saline 93 % of control | [14] 107 % of control | dose: 200.0 mg/kg/injection, schedule: Q04DX003 (ip), vehicle: saline 95 % of control | [15] 116 % of control | dose: 400.0 mg/kg/injection, schedule: Q04DX003 (ip), vehicle: saline 102 % of control
